Test results reported in PMC3225327 (Journal of Biomedical Science, 2011).

Experiments:
[1] = tested on: high-affinity rolipram-binding sites (HARBSs) of guinea pig brain cell membranes; assay: Displacement of 2 nM [3H]-rolipram from high-affinity rolipram-binding sites (PDE4H)
Description: When the above-mentioned guinea pigs were sacrificed, the whole brains were removed and homogenized with a glass/Teflon homogenizer (Glas-Col, Terre Haute, IN, USA) in 10 volumes of cold medium (pH 6.5) containing 20 mM Bis-Tris, 2 mM benzamidine, 2 mM EDTA, 50 mM sodium chloride, 0.1 mM PMSF, and 1 mM dithiothreitol. At 4°C, the homogenate was centrifuged at 170 g for 5 min to remove connective tissues and blood vessels. The suspended homogenate was then re-centrifuged at 40,000 g for 30 min to separate the cytosolic and particulate portions. The particulate portion was re-suspended in a suspension at a concentration of 400 mg/ml (wet weight/volume), after washing three times with homogenizing buffer. The particulate portion mainly consisted of cell membranes. […] Briefly, the reaction buffer consisted of 50 mM Tris-HCl and 5 mM MgCl2 (pH 7.5). […] After 1 h, the reaction was terminated by moving the reaction vessel into crushed ice. Then the reaction mixture was transferred onto Whatman GF/B glass-fiber filters, which were soaked in a 0.3% polyethyleneimine solution in a mini-funnel.

[2] = tested on: cytokines in bronchoalveolar lavage fluid; assay: Cytokine levels in BALF of sensitized and challenged mice (CBA kits); type: in vivo, BABL/c mice
Description: According to the schedule (Figure 1), ten female BABL/c mice in each group were sensitized by an intraperitoneal (i.p.) injection of 20 μg of OVA emulsified in 2.25 mg of an aluminum hydroxide gel, prepared from aluminum sulfate hexadecahydrate, in a total volume of 100 μl on days 0 and 14. On day 21, these mice were injected with (i.p.) 100 μl of a mixture of 1% OVA and Freund's complete adjuvant (1:1). Mice were challenged via the airway using 1% OVA in saline for 30 min on days 28, 29, and 30 by ultrasonic nebulization. After the last of OVA challenges, AHR was assessed on day 32 (48 h after 1% OVA provocation) in each group. […] For comparison, sham-treated mice were challenged with saline instead of 1% OVA (non-challenged). […] AHR was assessed using two methods: (1) in anesthetized ventilated mice, AHR was assessed as previously described by measuring changes in the airway resistance (RL, cmH2O/ml/sec) and lung dynamic compliance (Cdyn, ml/cmH2O) after challenge with aerosolized methacholine (MCh, 0.78~25 mg/ml) using the FlexiVent system (SCIREQ, Montreal, Quebec, Canada). Anesthetized (urethane 600 mg/kg and chloralose 120 mg/kg, i.p.), tracheostomized (stainless-steel cannula, 18 G) mice were mechanically ventilated (at 150 breaths/min, with a tidal volume of 10 ml/kg, positive end-expiratory pressure of 3 cmH2O). (2) in unrestrained animals by barometric plethysmography using a whole-body plethysmograph (WBP) and analyzed using software of Life Science Suite P3 Analysis Modules (Gould, LDS Test and Measurement LLC, Valley View, OH, USA). Mice were placed into the main chamber of the WBP, and the baseline enhanced pause (Penh) value was determined. […] Twenty-four hours after Penh determination, these mice were anesthetized with pentobarbital (50 mg/kg, i.p.), and the lungs were lavaged via a tracheal tube with PBS (1 × 1.0 ml, 37°C). After lavage, blood was collected from the jugular vein and allowed to sit so that it would coagulate. The collected bronchoalveolar lavage fluid (BALF) and coagulated blood were respectively centrifuged at 630 g for 7 min and at 3700 g for 10 min at 4°C. After centrifugation, the BALF and serum supernatants were stored at -20°C until determination of cytokines, including interleukin (IL)-2, IL-4, IL-5, tumor necrosis factor (TNF)-α, and interferon (IFN)-γ by flow cytometric methods using mouse T helper (Th)1/Th2 cytokine CBA kits, and of total immunoglobulin (Ig)E or IgG2a using ELISA kits (Pharmingen, San Diego, CA, USA) according to the respective recommendations of the manufacturers. OVA-specific IgE was measured as described previously. Wells were coated with 100 μl of OVA (20 μg/ml) instead of the capture antibody. Levels are expressed in arbitrary units, where 1 arbitrary unit equals the optical density of the sample divided by the optical density of unchallenged mouse serum or BALF (standard). The BALF pellet was resuspended in ACK lysing buffer (1.658 g NH4Cl, 0.2 g KHCO3 and 1.44 mg EDTA in 200 ml of water) to lyse the residual erythrocytes in each sample. The number of inflammatory cells was counted using a hemocytometer (Hausser Scientific, Horsham, PA, USA). Cytospun slides were stained and differentiated in a blinded fashion by counting at least 100 cells under light microscopy. All undetectable data (< 1 pg/ml) of cytokines were taken as 0 pg/ml.

PDE2 = assay: Inhibition of PDE2 activity, two-step procedure; type: biochemical; conditions: homogenate of guinea pig lungs or hearts
Description: (§1) Activities of PDE1~5 in the homogenate of guinea pig lungs or hearts were measured by a two-step procedure according to the previous method, using cAMP with [^3H]-cAMP or cGMP with [^3H]-cGMP as substrates. […] The reagents and homogenate were mixed on ice, and the reaction was initiated by transferring the mixture to a water bath at 37°C. Following a 30-min incubation, the reaction was stopped by transferring the reaction vessel to a bath of boiling water for 3 min. After cooling on ice, 20 μl of a 1 mg/ml solution of Crotalus atrox snake venom was added to the reaction mixture, and the mixture was incubated at 37°C for 10 min. Unreacted [^3H]-cAMP or [^3H]-cGMP was removed by the addition of 500 μl of a 1-in-1 Tris-HCl (40 mM) buffer suspension of Dowex resin (1 × 8-200) with incubation on ice for 30 min. Each tube was then centrifuged at 3700 g for 2 min, and 150 μl of the supernatant was removed for liquid scintillation counting. […] The total protein in each fraction used was assayed according to a previous method. PDE activities are reported as nmol/mg/min.

PDE3 = assay: Inhibition of PDE3 activity, two-step procedure; type: biochemical; conditions: homogenate of guinea pig lungs or hearts
Description: as §1

## COc1cc(O)c2c(c1)O[C@H](c1ccc(OC)c(OC)c1)CC2=O [HDME, hesperetin-7,3'-O-dimethylether]
[1]; 2 nM [3H]-rolipram, 30°C, 1 h, read-out: EC50 (PDE4H) for displacing [3H]-rolipram binding
  EC50: 107 ± 39.5 µM
[1]; EC50 of [3H]-rolipram displacement / IC50 of PDE4 inhibition
  PDE4H/PDE4L ratio (therapeutic ratio): 35.5
[2]; 30 μmol/kg p.o.
  effect on level of IFN-γ in BALF: enhanced
[2]; 3~30 μmol/kg p.o.
  effect on increase in level of IL-2 in BALF: significantly suppressed
  effect on increase in level of IL-4 in BALF: significantly suppressed
  effect on increase in level of IL-5 in BALF: significantly suppressed
  effect on increase in level of TNF-α in BALF: significantly suppressed
PDE2
  IC50: > 100 µM
PDE3
  IC50: 24.6 ± 3.5 µM
